Test results reported in patent publication US20230063794A1, “STAPLED TRIAZOLE CO-AGONISTS OF THE GLUCAGON AND GLP-1 RECEPTORS” (Merck Sharp & Dohme LLC, priority 2019, published 2023).
pEC50: −log10 of the molar value. Starred links: 1 amine or outer side, 2 acyl side, 3 side chain; linkers in the order of their positions; H or OH if unused. Positions of bridges follow the written chain, without caps; N, C: chain ends. Non-standard residues stand in square brackets, D forms with d. Residues, ends and D or L forms follow the SMILES beside them. Groups on a side chain read outwards from the residue. Triazole bridges read from a SMILES are 1,4-linked. *: point of attachment. Lys(N3) = [N-]=[N+]=NCCCC[C@H](N)C(=O)O; γGlu = O=C(O)[C@H](CCC(=O)[*:2])N[*:1]; Palmitoyl = CCCCCCCCCCCCCCCC(=O)*; dPra = C#CC[C@@H](N)C(=O)O; Nle = CCCC[C@H](N)C(=O)O; Aib = CC(C)(N)C(=O)O

What was measured:
[1] = molecular target: T1, human GLP1R (Homo sapiens, UniProt P43220); test: cAMP activity assay in cells expressing human GLP1R; format: cell-based; conditions: cAMP production, HitHunter cAMPXS, 1 hour; assay buffer with or without 20% human serum (not given)
T1 construct: expressed in transfected cells; grown under Blasticidin and Hygromycin selection
Description: (§1) Activity of the peptides at the Glucagon receptor (GCGR) and GLP-1 receptor (GLP1R) was measured in a cAMP activity assay.
(§2) Peptides were dissolved in 100% DMSO and serially diluted to generate 10 point titrations. The peptide solutions were then transferred into 384-well assay plates (150 nL/well). Assay ready frozen cells expressing human GLP1R or human GCGR were suspended in growth media consisting of DMEM medium (GIBCO), 10% FBS (GIBCO), 1× NEAA(GIBCO), 1× P/S (GIBCO), 10 ug/ml Blasticidin (GIBCO) and 200 μg/mL Hygromycin (GIBCO). Cells were then diluted in assay buffer consisting of PBS (GIBCO), 7.5% BSA (Perkin Elmer), 100 μM RO 20-1724 (Sigma), with or without 20% human serum (MP Biomedical). The cell suspensions (15 μL) were then added to the assay plates containing the peptide solutions (30,000 cells/well for human GCGR; 10,000 cells/well for human GLP1R). The cells were incubated for 1 hour at room temperature in the dark. Production of cAMP was determined using HitHunter™ cAMPXS kits (DiscoverX) following manufacturer protocol. The plates were incubated for overnight at room temperature in the dark. Luminescence was measured using an EnVision Multilabel plate reader (Perkin Elmer). Native GLP-1 and Glucagon (Bachem) are used as control peptides. EC50 values were calculated using uses a 4 parameter logistic fit based on the Levenberg-Marquardt algorithm.

[2] = molecular target: T2, human GCGR (Homo sapiens, UniProt P47871); test: cAMP activity assay in cells expressing human GCGR; format: cell-based; conditions: ratio of human GCGR EC50 to human GLP1R EC50
T2 construct: expressed in transfected cells; grown under Blasticidin and Hygromycin selection
Description: as §1, §2

T2 sequence (P47871 26-477): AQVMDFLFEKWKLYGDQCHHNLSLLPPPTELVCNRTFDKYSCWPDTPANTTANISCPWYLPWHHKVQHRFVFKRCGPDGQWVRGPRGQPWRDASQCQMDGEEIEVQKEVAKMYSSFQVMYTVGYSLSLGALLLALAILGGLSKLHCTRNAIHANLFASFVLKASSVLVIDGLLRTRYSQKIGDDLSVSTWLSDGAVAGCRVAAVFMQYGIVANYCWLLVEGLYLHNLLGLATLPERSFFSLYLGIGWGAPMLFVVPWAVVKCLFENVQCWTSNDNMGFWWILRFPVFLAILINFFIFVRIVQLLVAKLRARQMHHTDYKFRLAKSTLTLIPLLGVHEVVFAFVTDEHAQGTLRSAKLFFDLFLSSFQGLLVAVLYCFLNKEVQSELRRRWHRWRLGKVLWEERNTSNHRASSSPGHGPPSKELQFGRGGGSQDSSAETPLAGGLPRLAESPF
T1 sequence (P43220 24-463): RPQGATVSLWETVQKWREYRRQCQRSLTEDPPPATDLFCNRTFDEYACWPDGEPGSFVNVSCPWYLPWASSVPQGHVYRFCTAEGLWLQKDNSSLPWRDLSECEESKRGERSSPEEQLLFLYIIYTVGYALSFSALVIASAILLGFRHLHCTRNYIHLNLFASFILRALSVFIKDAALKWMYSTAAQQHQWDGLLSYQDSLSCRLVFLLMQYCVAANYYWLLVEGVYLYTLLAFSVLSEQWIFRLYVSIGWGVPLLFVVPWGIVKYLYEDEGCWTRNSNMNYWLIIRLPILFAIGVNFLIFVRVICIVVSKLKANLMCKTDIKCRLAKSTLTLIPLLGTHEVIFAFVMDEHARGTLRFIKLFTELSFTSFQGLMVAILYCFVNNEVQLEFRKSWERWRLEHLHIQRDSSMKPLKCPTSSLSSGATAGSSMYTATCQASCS

Row | SMILES | pEC50 [1] | hGCGR/hGLP1R (hTone) [2]
1 | CCCCCCCCCCCCCCCC(=O)N[C@@H](CCC(=O)N[C@@H](CCC(=O)NCCCC[C@H](NC(=O)[C@H](CC(=O)O)NC(=O)[C@H](CO)NC(=O)[C@@H](NC(=O)[C@H](Cc1ccccc1)NC(=O)[C@@H](NC(=O)CNC(=O)[C@H](CCC(N)=O)NC(=O)C(C)(C)NC(=O)[C@@H](N)Cc1c[nH]cn1)[C@@H](C)O)[C@@H](C)O)C(=O)N[C@@H](CO)C(=O)N[C@@H](CCCCN)C(=O)N[C@@H](Cc1ccc(O)cc1)C(=O)N[C@@H](CC(C)C)C(=O)N[C@@H](CC(=O)O)C(=O)N[C@@H]1Cc2cn(nn2)CCCC[C@@H](C(=O)N[C@@H](CC(=O)O)C(=O)N[C@@H](Cc2ccccc2)C(=O)N[C@H](C(=O)N[C@@H](CCC(N)=O)C(=O)N[C@@H](Cc2c[nH]c3ccccc23)C(=O)N[C@@H](CC(C)C)C(=O)N[C@@H](CCCC)C(=O)N[C@@H](CC(=O)O)C(=O)N[C@H](C(N)=O)[C@@H](C)O)C(C)C)NC(=O)[C@H](C)NC(=O)[C@H](C)NC(=O)[C@H](CCCNC(=N)N)NC1=O)C(=O)O)C(=O)O [compound 16] (H-H[Aib]QGTFTSDK([γGlu-γGlu-Palmitoyl])SKYLD[dPra]RAA[Lys(N3)]DFVQWL[Nle]DT-NH2; triazole 16-20; N-terminus assumed) | 10.38 | 1.13
2 | CCCCCCCCCCCCCCCC(=O)N[C@@H](CCC(=O)N[C@@H](CCC(=O)NCCCC[C@H](NC(=O)[C@H](CC(=O)O)NC(=O)[C@H](CO)NC(=O)[C@@H](NC(=O)[C@H](Cc1ccccc1)NC(=O)[C@@H](NC(=O)CNC(=O)[C@H](CCC(N)=O)NC(=O)[C@@H](CO)NC(=O)[C@@H](N)Cc1c[nH]cn1)[C@@H](C)O)[C@@H](C)O)C(=O)N[C@@H](CO)C(=O)N[C@@H](CCCCN)C(=O)N[C@@H](Cc1ccc(O)cc1)C(=O)N[C@@H](CC(C)C)C(=O)N[C@@H](CC(=O)O)C(=O)N[C@@H](CCC(=O)O)C(=O)N[C@@H](CCCNC(=N)N)C(=O)N[C@@H](C)C(=O)N[C@@H](C)C(=O)N[C@@H]1Cc2cn(nn2)CCCC[C@@H](C(=O)N[C@@H](Cc2c[nH]c3ccccc23)C(=O)N[C@@H](CC(C)C)C(=O)N[C@@H](CC(C)C)C(=O)N[C@@H](CC(=O)O)C(=O)N[C@H](C(N)=O)[C@@H](C)O)NC(=O)[C@H](C(C)C)NC(=O)[C@H](Cc2ccccc2)NC(=O)[C@H](CC(=O)O)NC1=O)C(=O)O)C(=O)O [compound 7] (H-H[dS]QGTFTSDK([γGlu-γGlu-Palmitoyl])SKYLDERAA[dPra]DFV[Lys(N3)]WLLDT-NH2; triazole 20-24) | 10.38 | 0.95
3 | CCCCCCCCCCCCCCCC(=O)N[C@@H](CCC(=O)N[C@@H](CCC(=O)NCCCC[C@H](NC(=O)[C@H](CC(=O)O)NC(=O)[C@H](CO)NC(=O)[C@@H](NC(=O)[C@H](Cc1ccccc1)NC(=O)[C@@H](NC(=O)CNC(=O)[C@H](CCC(N)=O)NC(=O)C(C)(C)NC(=O)[C@@H](N)Cc1c[nH]cn1)[C@@H](C)O)[C@@H](C)O)C(=O)N[C@@H](CO)C(=O)N[C@@H](CCCCN)C(=O)N[C@@H](Cc1ccc(O)cc1)C(=O)N[C@@H](CC(C)C)C(=O)N[C@@H](CC(=O)O)C(=O)NC(C)(C)C(=O)N[C@@H]1Cc2cn(nn2)CCCC[C@@H](C(=O)N[C@@H](Cc2ccccc2)C(=O)N[C@H](C(=O)N[C@@H](CCC(N)=O)C(=O)N[C@@H](Cc2c[nH]c3ccccc23)C(=O)N[C@@H](CC(C)C)C(=O)N[C@@H](CCCC)C(=O)N[C@@H](CC(=O)O)C(=O)N[C@H](C(N)=O)[C@@H](C)O)C(C)C)NC(=O)[C@H](CCC(N)=O)NC(=O)[C@H](C)NC(=O)[C@H](C)NC1=O)C(=O)O)C(=O)O [compound 18] (H-H[Aib]QGTFTSDK([γGlu-γGlu-Palmitoyl])SKYLD[Aib][dPra]AAQ[Lys(N3)]FVQWL[Nle]DT-NH2; triazole 17-21) |  | 1.96
4 | CCCCCCCCCCCCCCCC(=O)N[C@@H](CCC(=O)N[C@@H](CCC(=O)NCCCC[C@H](NC(=O)[C@H](CC(=O)O)NC(=O)[C@H](CO)NC(=O)[C@@H](NC(=O)[C@H](Cc1ccccc1)NC(=O)[C@@H](NC(=O)CNC(=O)[C@H](CCC(N)=O)NC(=O)[C@@H](CO)NC(=O)[C@@H](N)Cc1c[nH]cn1)[C@@H](C)O)[C@@H](C)O)C(=O)N[C@@H](CO)C(=O)N[C@@H](CCCCN)C(=O)N[C@@H](Cc1ccc(O)cc1)C(=O)N[C@@H](CC(C)C)C(=O)N[C@@H](CC(=O)O)C(=O)N[C@@H](C)C(=O)N[C@@H](CCCNC(=N)N)C(=O)N[C@@H](C)C(=O)N[C@@H](C)C(=O)N[C@@H](CCC(N)=O)C(=O)N[C@@H](CC(=O)O)C(=O)N[C@@H](Cc1ccccc1)C(=O)N[C@H](C(=O)N[C@H]1CCCCn2cc(nn2)C[C@H](C(=O)N[C@H](C(N)=O)[C@@H](C)O)NC(=O)[C@H](CC(C)C)NC(=O)[C@H](CC(C)C)NC(=O)[C@H](Cc2c[nH]c3ccccc23)NC1=O)C(C)C)C(=O)O)C(=O)O [compound 24] (H-H[dS]QGTFTSDK([γGlu-γGlu-Palmitoyl])SKYLDARAAQDFV[Lys(N3)]WLL[dPra]T-NH2; triazole 24-28; N-terminus assumed) |  | 0.54
